Results taken from paper PMC11277489, “Novel Piperazine Derivatives of Vindoline as Anticancer Agents” (International Journal of Molecular Sciences, 2024).

Experiments:
[1] = tested on: BT-549; experiment: NCI60 one-dose screen (10 μM), Breast Cancer; format: cell-based; conditions: Homo sapiens; 10 μM; BT-549, Breast Cancer; read-out: Growth percent rate
[2] = tested on: SW-620; experiment: NCI60 five-dose screen, Colon Cancer; format: cell-based; conditions: Homo sapiens; SW-620, Colon Cancer; five-dose screen; read-out: GI50
[3] = tested on: ACHN; experiment: NCI60 five-dose screen, Renal Cancer; format: cell-based; conditions: Homo sapiens, Renal Cancer, five-dose screen, read-out: GI50
[4] = tested on: OVCAR-4; experiment: NCI60 five-dose screen, Ovarian Cancer; format: cell-based; conditions: Homo sapiens; OVCAR-4, Ovarian Cancer; five-dose screen; read-out: GI50
[5] = tested on: EKVX; experiment: NCI60 one-dose screen (10 μM), Non-small Cell Lung Cancer; format: cell-based; conditions: Homo sapiens, 10 μM, Non-small Cell Lung Cancer, read-out: Growth percent rate
[6] = tested on: HS 578T; experiment: NCI60 one-dose screen (10 μM), Breast Cancer; format: cell-based; conditions: Homo sapiens; 10 μM; HS 578T, Breast Cancer; read-out: Growth percent rate
[7] = tested on: SK-MEL-5; experiment: NCI60 five-dose screen, Melanoma; format: cell-based; conditions: Homo sapiens; SK-MEL-5, Melanoma; five-dose screen; read-out: GI50
[8] = tested on: T-47D; experiment: NCI60 five-dose screen, Breast Cancer; format: cell-based; conditions: Homo sapiens, T47D; T-47D, Breast Cancer; five-dose screen; read-out: GI50
[9] = tested on: HOP-92; experiment: NCI60 one-dose screen (10 μM), Non-small Cell Lung Cancer; format: cell-based; conditions: Homo sapiens; 10 μM; HOP-92, Non-small Cell Lung Cancer; read-out: Growth percent rate
[10] = tested on: PC-3; experiment: NCI60 one-dose screen (10 μM), Prostate Cancer; format: cell-based; conditions: Homo sapiens; 10 μM; PC-3, Prostate Cancer; read-out: Growth percent rate
[11] = tested on: BT-549; experiment: NCI60 five-dose screen, Breast Cancer; format: cell-based; conditions: Homo sapiens; BT-549, Breast Cancer; five-dose screen; read-out: GI50
[12] = tested on: PC-3; experiment: NCI60 five-dose screen, Prostate Cancer; format: cell-based; conditions: Homo sapiens; PC-3, Prostate Cancer; five-dose screen; read-out: GI50
[13] = tested on: HOP-62; experiment: NCI60 five-dose screen, Non-small Cell Lung Cancer; format: cell-based; conditions: Homo sapiens; HOP-62, Non-small Cell Lung Cancer; five-dose screen; read-out: GI50
[14] = tested on: HCT-116; experiment: NCI60 one-dose screen (10 μM), Colon Cancer; format: cell-based; conditions: Homo sapiens; 10 μM; HCT-116, Colon Cancer; read-out: Growth percent rate
[15] = tested on: NCI-H226; experiment: NCI60 five-dose screen, Non-small Cell Lung Cancer; format: cell-based; conditions: Homo sapiens; NCI-H226, Non-small Cell Lung Cancer; five-dose screen; read-out: GI50
[16] = tested on: NCI-H522; experiment: NCI60 five-dose screen, Non-small Cell Lung Cancer; format: cell-based; conditions: Homo sapiens; NCI-H522, Non-small Cell Lung Cancer; five-dose screen; read-out: GI50
[17] = tested on: A549/ATCC; experiment: NCI60 five-dose screen, Non-small Cell Lung Cancer; format: cell-based; conditions: Homo sapiens; A549/ATCC, Non-small Cell Lung Cancer; five-dose screen; read-out: GI50
[18] = tested on: UACC-257; experiment: NCI60 five-dose screen, Melanoma; format: cell-based; conditions: Homo sapiens; UACC-257, Melanoma; five-dose screen; read-out: GI50
[19] = tested on: OVCAR-3; experiment: NCI60 five-dose screen, Ovarian Cancer; format: cell-based; conditions: Homo sapiens; OVCAR-3, Ovarian Cancer; five-dose screen; read-out: GI50
[20] = tested on: HCT-15; experiment: NCI60 five-dose screen, Colon Cancer; format: cell-based; conditions: Homo sapiens; HCT-15, Colon Cancer; five-dose screen; read-out: GI50
[21] = tested on: HL-60(TB); experiment: NCI60 five-dose screen, Leukemia; format: cell-based; conditions: Homo sapiens; HL-60(TB), Leukemia; five-dose screen; read-out: GI50
[22] = tested on: SF-268; experiment: NCI60 five-dose screen, CNS Cancer; format: cell-based; conditions: Homo sapiens; SF-268, CNS Cancer; five-dose screen; read-out: GI50
[23] = tested on: SK-OV-3; experiment: NCI60 one-dose screen (10 μM), Ovarian Cancer; format: cell-based; conditions: Homo sapiens; 10 μM; SK-OV-3, Ovarian Cancer; read-out: Growth percent rate
[24] = tested on: SN12C; experiment: NCI60 one-dose screen (10 μM), Renal Cancer; format: cell-based; conditions: Homo sapiens, 10 μM, Renal Cancer, read-out: Growth percent rate
[25] = tested on: A498; experiment: NCI60 five-dose screen, Renal Cancer; format: cell-based; conditions: Homo sapiens; A498, Renal Cancer; five-dose screen; read-out: GI50
[26] = tested on: MDA-MB-468; experiment: NCI60 one-dose screen (10 μM), Breast Cancer; format: cell-based; conditions: Homo sapiens; 10 μM; MDA-MB-468, Breast Cancer; read-out: Growth percent rate
[27] = tested on: OVCAR-3; experiment: NCI60 one-dose screen (10 μM), Ovarian Cancer; format: cell-based; conditions: Homo sapiens; 10 μM; OVCAR-3, Ovarian Cancer; read-out: Growth percent rate
[28] = tested on: NCI-H226; experiment: NCI60 one-dose screen (10 μM), Non-small Cell Lung Cancer; format: cell-based; conditions: Homo sapiens; 10 μM; NCI-H226, Non-small Cell Lung Cancer; read-out: Growth percent rate
[29] = tested on: NCI-H460; experiment: NCI60 five-dose screen, Non-small Cell Lung Cancer; format: cell-based; conditions: Homo sapiens; NCI-H460, Non-small Cell Lung Cancer; five-dose screen; read-out: GI50
[30] = tested on: NCI-H23; experiment: NCI60 five-dose screen, Non-small Cell Lung Cancer; format: cell-based; conditions: Homo sapiens; NCI-H23, Non-small Cell Lung Cancer; five-dose screen; read-out: GI50
[31] = tested on: UACC-62; experiment: NCI60 one-dose screen (10 μM), Melanoma; format: cell-based; conditions: Homo sapiens; 10 μM; UACC-62, Melanoma; read-out: Growth percent rate
[32] = tested on: NCI/ADR-RES; experiment: NCI60 five-dose screen, Ovarian Cancer; format: cell-based; conditions: Homo sapiens, Ovarian Cancer, five-dose screen, read-out: GI50
[33] = tested on: HCC-2998; experiment: NCI60 one-dose screen (10 μM), Colon Cancer; format: cell-based; conditions: Homo sapiens; 10 μM; HCC-2998, Colon Cancer; read-out: Growth percent rate
[34] = tested on: SNB-75; experiment: NCI60 five-dose screen, CNS Cancer; format: cell-based; conditions: Homo sapiens; SNB-75, CNS Cancer; five-dose screen; read-out: GI50
[35] = tested on: U251; experiment: NCI60 five-dose screen, CNS Cancer; format: cell-based; conditions: Homo sapiens, U-251; U251, CNS Cancer; five-dose screen; read-out: GI50
[36] = tested on: SK-MEL-2; experiment: NCI60 five-dose screen, Melanoma; format: cell-based; conditions: Homo sapiens; SK-MEL-2, Melanoma; five-dose screen; read-out: GI50
[37] = tested on: NCI-H522; experiment: NCI60 one-dose screen (10 μM), Non-small Cell Lung Cancer; format: cell-based; conditions: Homo sapiens; 10 μM; NCI-H522, Non-small Cell Lung Cancer; read-out: Growth percent rate
[38] = tested on: LOX IMVI; experiment: NCI60 five-dose screen, Melanoma; format: cell-based; conditions: Homo sapiens, Melanoma, five-dose screen, read-out: GI50
[39] = tested on: K-562; experiment: NCI60 five-dose screen, Leukemia; format: cell-based; conditions: Homo sapiens, K562; K-562, Leukemia; five-dose screen; read-out: GI50
[40] = tested on: NCI/ADR-RES; experiment: NCI60 one-dose screen (10 μM), Ovarian Cancer; format: cell-based; conditions: Homo sapiens, 10 μM, Ovarian Cancer, read-out: Growth percent rate
[41] = tested on: SF-539; experiment: NCI60 five-dose screen, CNS Cancer; format: cell-based; conditions: Homo sapiens; SF-539, CNS Cancer; five-dose screen; read-out: GI50
[42] = tested on: MDA-MB-231/ATCC; experiment: NCI60 one-dose screen (10 μM), Breast Cancer; format: cell-based, human; conditions: Homo sapiens; 10 μM; MDA-MB-231/ATCC, Breast Cancer; read-out: Growth percent rate
[43] = tested on: SR; experiment: NCI60 one-dose screen (10 μM), Leukemia; format: cell-based; conditions: Homo sapiens, 10 μM, Leukemia, read-out: Growth percent rate
[44] = tested on: UO-31; experiment: NCI60 one-dose screen (10 μM), Renal Cancer; format: cell-based; conditions: Homo sapiens; 10 μM; UO-31, Renal Cancer; read-out: Growth percent rate
[45] = tested on: T-47D; experiment: NCI60 one-dose screen (10 μM), Breast Cancer; format: cell-based; conditions: Homo sapiens, T47D; 10 μM; T-47D, Breast Cancer; read-out: Growth percent rate
[46] = tested on: OVCAR-5; experiment: NCI60 one-dose screen (10 μM), Ovarian Cancer; format: cell-based; conditions: Homo sapiens; 10 μM; OVCAR-5, Ovarian Cancer; read-out: Growth percent rate

CC[C@]12C=CCN3CC[C@@]4(c5ccc(OC)cc5N(C)[C@H]4[C@@](O)(C(=O)OC)[C@@H]1OC(=O)CCC(=O)N1CCN(C(c4ccc(F)cc4)c4ccc(F)cc4)CC1)[C@@H]32 [Compound 31]
activity at 10 µM [1]: -60.6%
GI50 [2]: 2270 nM
GI50 [3]: 2060 nM
GI50 [4]: 1620 nM
activity at 10 µM [5]: -17.8%
activity at 10 µM [6]: -32.6%
GI50 [7]: 1840 nM
GI50 [8]: 2470 nM
activity at 10 µM [9]: -44.9%
activity at 10 µM [10]: -28.5%
GI50 [11]: 1810 nM
GI50 [12]: 1860 nM
GI50 [13]: 2550 nM
activity at 10 µM [14]: -32.4%
GI50 [15]: 1840 nM
GI50 [16]: 2040 nM
GI50 [17]: 2670 nM
GI50 [18]: 2700 nM
GI50 [19]: 1600 nM
GI50 [20]: 2450 nM
GI50 [21]: 1930 nM
GI50 [22]: 2980 nM
activity at 10 µM [23]: -15.6%
activity at 10 µM [24]: -89.1%
GI50 [25]: 2380 nM
activity at 10 µM [26]: -69.1%
activity at 10 µM [27]: -71%
activity at 10 µM [28]: -32.4%
GI50 [29]: 1930 nM
GI50 [30]: 2700 nM
activity at 10 µM [31]: -84.3%
GI50 [32]: 1950 nM
activity at 10 µM [33]: -66.9%
GI50 [34]: 2110 nM
GI50 [35]: 2780 nM
GI50 [36]: 1620 nM
activity at 10 µM [37]: -22.2%
GI50 [38]: 1800 nM
GI50 [39]: 2920 nM
activity at 10 µM [40]: -62.1%
GI50 [41]: 2020 nM

CC[C@]12C=CCN3CC[C@@]4(c5ccc(OC)cc5N(C)[C@H]4[C@@](O)(C(=O)OC)[C@@H]1OC(=O)CCCN1CCN(Cc4ccc(C(F)(F)F)cc4)CC1)[C@@H]32 [Compound 23]
activity at 10 µM [42]: -94.4%
activity at 10 µM [1]: -92.4%
GI50 [2]: 1550 nM
GI50 [3]: 1780 nM
GI50 [4]: 2040 nM
activity at 10 µM [5]: -75.1%
activity at 10 µM [6]: -61.1%
GI50 [7]: 1350 nM
GI50 [8]: 1740 nM
activity at 10 µM [9]: -70.7%
activity at 10 µM [43]: -55.2%
activity at 10 µM [10]: -72%
activity at 10 µM [44]: -69.5%
GI50 [11]: 1660 nM
GI50 [12]: 1580 nM
GI50 [13]: 1740 nM
activity at 10 µM [14]: -89.3%
GI50 [15]: 2040 nM
GI50 [16]: 1700 nM
GI50 [17]: 1780 nM
GI50 [18]: 1740 nM
GI50 [19]: 1550 nM
GI50 [20]: 1740 nM
GI50 [21]: 1740 nM
activity at 10 µM [45]: -20%
GI50 [22]: 1350 nM
activity at 10 µM [23]: -44%
activity at 10 µM [24]: -4.35%
GI50 [25]: 1620 nM
activity at 10 µM [26]: -58.2%
activity at 10 µM [27]: -68.4%
activity at 10 µM [28]: -32.3%
GI50 [29]: 1550 nM
GI50 [30]: 1910 nM
activity at 10 µM [31]: -91.5%
GI50 [32]: 1580 nM
activity at 10 µM [46]: -86%
activity at 10 µM [33]: -83.6%
GI50 [34]: 1450 nM
GI50 [35]: 1660 nM
GI50 [36]: 1780 nM
activity at 10 µM [37]: -59.3%
GI50 [38]: 1780 nM
GI50 [39]: 1700 nM
GI50 [41]: 1580 nM
